Test results from patent publication EP1435941B1 (ARIZONA BOARD OF REGENTS on behalf of THE UNIVERSITY OF …, priority 2001, dated 2003).
Like-named read-outs stand apart in the source and are kept apart here.

Tests used:
C57BL6 mice = assay: Toxicity in mice, intraperitoneal daily for 4 days (MTD, differential blood counts, serum chemistry); format: in vivo; conditions: for Lymphocyte toxicity relative to wortmannin: percent decrease in lymphocyte counts at the MTD or highest dose tested; for Lymphocyte toxicity relative to wortmannin / Liver toxicity relative to wortmannie: wortmannin as 1.0; for Maximum tolerated dose: Ip qD x 4, MTD=>10% body weight loss, C57BL6 mice; for Liver toxicity relative to wortmannie: mean percent increase in serum ALT and AST at the MTD or highest dose tested
Text: (§1) Highlighted are the compounds being made for antitumor testing.

mTOR = mTOR enzyme inhibition; format: biochemical; conditions: dose to cause 50% inhibition
Text: as §1

[1] = target: phesphatidylinositol-3-kinase; assay: PI-3 kinase enzyme inhibition; format: biochemical; conditions: read-out: P1-3 kinase Inhibition IC50
Text: as §1

NCl cell panel [2] = assay: Cytotoxicity, MTT assay; conditions: read-out: cytotoxieity NCl cell panel IC50
NCl cell panel [3] = conditions: nci cell panel, 48 h
[4] = 2 day MTT assay, mean of 60 cell lines

Row | Structure (SMILES) | Lymphocyte toxicity relative to wortmannin (C57BL6 mice) | IC50 (mTOR) [nM] | IC50 ([1]; dose to cause 50% inhibition) [nM] | IC50 (NCl cell panel [2]; [4]) [µM] | IC50 (NCl cell panel [3]) [nM] | IC50 [1] [nM] | IC50 (NCl cell panel [2]; Homo sapiens, 60 cell, 48 h) [µM] | Maximum tolerated dose (C57BL6 mice) [mg/kg] | Liver toxicity relative to wortmannie (C57BL6 mice)
1 | COC[C@H]1OC(=O)/C(=C/NCC(N)=O)C2=C(O)C(=O)C3=C([C@H](OC(C)=O)C[C@]4(C)C(=O)CC[C@@H]34)[C@]21C [DJM2-190] | 0.6 | > 3000 | 10000 | 33 | – | – | – | – | –
2 | COC[C@H]1OC(=O)/C(=C/N2CCCC2)C2=C(O)C(=O)C3=C([C@H](OC(C)=O)C[C@]4(C)C(=O)CC[C@@H]34)[C@]21C [DJM2-167, Acetic acid 6-hydroxy-1α-methoxymethyl-10β,13β-dimethyl-3,7,17-trioxo-4-pyrrolidin-1-yl-methylene-1,3,4,7,10,11β,12,13,14α,15,16,17-dodecahydro-2-oxa-cyclopenta[a]phenanthren-11-yl] | – | – | 1100 | – | 500 | – | – | – | –
3 | COC[C@H]1OC(=O)c2coc3c2[C@@]1(C)C1=C(C3=O)[C@@H]2CCC(=O)[C@@]2(C)C[C@H]1OC(C)=O [wortmannin, reference compound] | – | – | – | – | – | 300 | 8.9 | – | –
4 | COC[C@H]1OC(=O)/C(=C/NC(C)C(=O)O)C2=C(O)C(=O)C3=C([C@H](OC(C)=O)C[C@]4(C)C(=O)CC[C@@H]34)[C@]21C (stereo partly drawn) [DJM2-177] | 2.0 | 1500 | 300 | 10.2 | – | – | – | 6 | 0.2
5 | COC[C@H]1OC(=O)C(=CN(C)Cc2ccccc2)C2=C(O)C(=O)C3=C([C@H](OC(C)=O)C[C@]4(C)C(=O)CC[C@@H]34)[C@]21C [DJM2-181, Acetic acid 4-[(benzylmethylamino)methylene]-6-hydroxy-1α-methoxymethyl-10β,13β-dimethyl-3,7,17-trioxo-1,3,4,7,10,11β,12,13, 14α,15,16,17-dodecahydro-2-oxa-cyclopenca[a]phenanthren-11-yl ester] | – | > 3000 | 100 | – | 700 | – | – | > 18 | –
6 | COC[C@H]1OC(=O)/C(=C/SCc2ccccc2)C2=C(O)C(=O)C3=C([C@H](OC(C)=O)C[C@]4(C)C(=O)CC[C@@H]34)[C@]21C [DJM2-170] | 1.1 | > 3000 | 1000 | 7.1 | – | – | – | 9 | 1.7
